# Reference: patent US11878972B2, “Treatment of neurological disorders” (TORQUR AG, priority 2016, dated 2024)
# Where two headings read alike, the source gives them in different places.
# Tests used:
# [1] = Maximal tolerated dose (MTD) / tolerability in BALB/c nude mice; type: in vivo; conditions: for MTD: female, BALB/c nude, mouse, in vivo, po
# Procedure: In order to find a dose that could be used for further experiments and in order to show tolerability of compounds of the present invention, female BALB/c nude mice were treated with Cpd. 3 and Cpd. 8 by per oral (p.o.) gavage twice for five days with a two day dose holiday in between. Compounds were administered in the following vehicle: 20% Hydroxypropyl-β-cyclodextrin (HPBCD), 10% DMSO and 70% water. The major endpoint was to evaluate the body weight loss and animal survival. The body weights were recorded daily for the dosing days and at least twice weekly thereafter. The animal death was checked daily for survival. Animals were to be evaluated for 7 days post the final dose. The tolerated dose was defined as the dose that results in less than 20% mean body-weight loss, and no treatment related death during the study. The randomized block design was used to assign experimental animals to groups. First, the experimental animals were divided into homogeneous blocks according to their initial body weight. Secondly, within each block, randomization of experimental animals to treatments was conducted.
# Animal supplier: Shanghai Lingchang Bio-Technology Co. Ltd (LC, Shanghai, China). Animal Certificate No.: 2013001803305. The mice were kept in individual ventilated cage (IVC) systems at constant temperature and humidity with 5 animals in each cage.
# Diet: Mouse diet, C060 irradiation sterilized dry granule food. Animals had free access during the entire study period. Water: RO water, autoclaved before using. Animals had free access to sterile drinking water.
# OVCAR-3 and SUDHL/6 tumor bearing BALB/c nude mice were treated with Cpd. 3, p.o. at 100 mg/kg for 21 or 15 consecutive days, respectively under the same conditions. Body weight of the mice was stable.
# in vivo = conditions: B57BL/6J, mouse
# Procedure: 8, 50 mg/kg was administered to B57BL/6J mice by gavage. Animals were housed in temperature controlled rooms with free access to food and water. Test items were weighed in a glass vial and dissolved first in DMSO. Tween 80 was added subsequently and finally, the formulation was completed with HPβCD 20%. […] Blood was collected in tubes containing K3-EDTA and stored on ice until centrifugation at 3000×g (10 min. 4° C.). The plasma supernatant was separated and kept at −20° C. until being assayed. Thigh muscle and brain of mice were snap frozen. The brain and muscle samples were homogenized in PBS using the Precellys 24/Dual homogeniser.
# Samples were analyzed by LC-MS. Calibration standards were prepared by spiking 20 μl of drug free blank plasma with calibration solution. […] Samples were vigorously shaken and centrifuged for 10 minutes at 6000 g and 20° C. […] An aliquot was transferred to 200 μl sampler vials and subsequently subjected to LC-MS with an injection volume of 1.5 μl.
# [2] = system: female NMRI mice, nonepileptic (sham-SE) and epileptic (pilo-SE); experiment: Maximal electroshock seizure threshold test (MEST); type: in vivo, mouse
# Procedure: A total of 166 adult female NMRI mice were used obtained from Charles River (Sulzfeld, Germany) at a weight range of 21-25 g (mice). Animals were kept under the following conditions: Housing: Animals were housed in groups of max. 8 mice under controlled conditions (temperature: 22±1° C.; humidity: 50% 60%/), under a 12-h light-dark cycle (lights on at 6:00 a.m.). Feeding: Standard laboratory chow (Altromin 1324 standard diet, Altromin Spezialfutter GmbH, Lage, Germany) was provided ad libitum. Drinking water: Tap water was provided ad libitum.
# The MEST determines a population seizure threshold in groups of ˜20 animals and not the threshold for an individual animal. In the present study, the MEST was determined by a staircase procedure as previously described. A stimulator (BMT Medizintechnik, Berlin, Germany) that delivered a constant current (adjustable from 1-200 mA regardless of the impedance of the animal) with sinusoidal pulses (50/sec) for 0.2 sec was used.
# Current administration was performed via bilateral transcorneal stimulation (using copper electrodes). Before transcorneal stimulation, a drop of tetracaine solution (2%) was administered to the eyes of the mouse for local anesthesia. Two minutes later, the mouse was restrained by hand to press the copper electrodes on both corneas while the stimulus was applied by stepping on a foot pedal switch connected with the stimulator. Electrodes were covered with soft leather and soaked with saline before each current application. […] The first stimulation was started with a current near to the control threshold.
# 3 (HCl): 40/100 mg in 10 ml (Suspension; 5% PEG 400 and 2% Tween 80, HPBCD (10%6)) • Cpd. 8 (HCl): 12.5/25 mg in 10 ml (5% PEG 400 and 2% Tween 80, HPBCD (10%))
# Statistical analysis were calculated using Student's t-test. All tests were used two-sided; a P<0.05 was considered significant.
# We performed no special tests for the determination of adverse effects. Mice were observed about 30 min after injection in their home cages for obvious sedation or reduction of wellbeing. Five minutes before electrical stimulation mice were again observed in their home cages and two minutes before stimulation during handling procedure for treatment with local anaesthesia. Every obvious variation from normal behavior was noted. Only phenobarbital induced noticeable sedation which lasted for more than 60 min. All other test drugs (including vehicle solutions) were tolerated without any obvious adverse effects.
# [3] = system: 51Q-HTT-Exon1-eGFP transfected HEK cells; experiment: Filter trap assay of mutHTT aggregates; type: cell-based, human; conditions: 8 hours; Cpd. 3 400, 1230 nM; Cpd. 8 130, 1230 nM; INK128 100 nM; Rapamycin 400 nM
# Procedure: HEK cells were transiently transfected with pcDNA3.1/V5-His vector from Clontech (Mountain View, USA) containing the expression sequence for Exon1 of HTT with a 19Q (no aggregation) or 51Q extension and enhanced green fluorescence protein (eGFP) tag using Attractene Transfection Reagent (Qiagen, Netherlands). 1×10^6 cells were seeded in a 6 well plate. On the next day 2 μg DNA were mixed with 95.5 μl transfection media and 4.5 μl transfection reagent. After an incubation time of 15 min the mixture was added to the cells. After 72 hours cells were harvested or fixed for analysis.
# HEK cells transfected with 19Q- or 51Q-HTT-Exon1-eGFP were treated with DMSO control. 51Q-HTT-Exon I-eGFP HEK cells form aggregates. These cells were treated with Cpd. 3 (400, 1230 nM), Cpd. […] After 30 min incubation on ice, cells were homogenized (Dounce Homogenizer, Thermo Fisher, USA). 50 μg of protein solution in PBS was supplemented with 2% SDS (Roth, Germany). Samples were sucked through a nitrocellulose membrane (0.45 μm) and washed twice with PBS buffer.
# [4] = system: pS6 S235/S236 in A2058 cells; experiment: In-cell Western blot, pS6 S235/S236; type: cell-based; conditions: Homo sapiens, A2058, 1 h, treated for 1 hour, normalized to α-tubulin
# Procedure: Cells are fixed with 4% paraformaldehyde for 30 minutes at room temperature, washed 2 times with 1% BSA in PBS, permeabilized with 0.1% Triton X-100 in PBS/1% BSA for 30 minutes at room temperature and blocked with 5% goat serum in PBS/1% BSA/0.1% Triton X-100 for 30 minutes at room temperature. […] Cells are washed 3 times 5 minutes with PBS/1% BSA/0.1% triton and plate scanned with the Odyssey Infrared Scanning system using both 700 and 800 nm channels. […] To correct for background staining in the data analysis wells are treated only with secondary antibodies.
# For data analysis the mean background signal from channel 700 nm and 800 nm are subtracted from each signal in channel 700 nm and 800 nm, respectively.
# IC50 values of each compound are determined by plotting the normalized pPBK S473 and pS6 S235/S236 signals, respectively, versus the compound concentrations (in logarithmic scale) and then by fitting a sigmoidal dose-response curve with variable slope to the data using GraphPad™ Prism.
# [5] = 40 mg/kg Cpd. 3 p.o., pretreatment 1 h
# [6] = 40 mg/kg Cpd. 3 p.o., pretreatment 3 h
# [7] = 100 mg/kg Cpd. 3 p.o., pretreatment 3 h
# [8] = 12.5 mg/kg Cpd. 8 p.o., pretreatment 3 h
# [9] = 25 mg/kg Cpd. 8 p.o., pretreatment 1 h
# [10] = 25 mg/kg Cpd. 8 p.o., pretreatment 3 h
# [11] = 25 mg/kg Cpd. 8 p.o., pretreatment 24 h
compound,measurement,setting,value
"Nc1cc(C(F)F)c(-c2nc(N3C4CCC3COC4)nc(N3C4CCC3COC4)n2)cn1 [Compound 3, 5-(4-(3-oxa-8-azabicyclo[3.2.1]octan-8-yl)-6-(3-oxa-8-azabicyclo[3.2.1]octan-8-yl)-1,3,5-triazin-2-yl)-4-(difluoromethyl)pyridin-2-amine]",Body weight of the mice,"[1]; OVCAR-3 and SUDHL/6 tumor bearing BALB/c nude mice, p.o. 100 mg/kg for 21 or 15 consecutive days",stable
same,MTD,"[1]; BALB/c mice, p.o., twice for five days with a two day dose holiday, read-out: MTD",100 mg/kg
same,half-life,in vivo; half-life,5 h
same,AUC,"in vivo; po, 50 mg/kg",20500 ng·h/mL
same,Tmax,"in vivo; po, 50 mg/kg",0.5 h
same,half-life,"in vivo; po, 50 mg/kg, Brain t1/2",5 h
same,half-life,"in vivo; po, 50 mg/kg, Plasma t1/2",5.3 h
same,half-life,"in vivo; po, 50 mg/kg, half-life in mice (estimated)",4.7 to 4.8 h
same,CC50 Pilo-SE (epileptic),[2]; [5],17.99 ± 1.39 mA
same,CC50 Sham-SE (nonepileptic),[2]; [5],15.14 ± 1.06 mA
same,Threshold difference between nonepileptic and epileptic,[2]; [5],19%
same,CC50 Pilo-SE (epileptic),[2]; [6],18.20 ± 1.35 mA
same,CC50 Sham-SE (nonepileptic),[2]; [6],17.49 ± 1.20 mA
same,Threshold difference between nonepileptic and epileptic,[2]; [6],4%
same,"Threshold difference between vehicle and drug threshold, nonepileptic",[2]; [6],6%
same,CC50 Pilo-SE (epileptic),[2]; [7],20.85 ± 1.38 mA
same,CC50 Sham-SE (nonepileptic),[2]; [7],16.72 ± 1.72 mA
same,Threshold difference between nonepileptic and epileptic,[2]; [7],25%
same,"Threshold difference between vehicle and drug threshold, epileptic",[2]; [7],9%
same,"Threshold difference between vehicle and drug threshold, nonepileptic",[2]; [7],2%
same,anticonvulsant effect (overall),[2]; parameters tested in this study,slight but inconsistent anticonvulsant effect
same,mutHTT aggregates (filter trap),[3],significant reduction of cytotoxic mutHTT aggregates
"C[C@H]1COCCN1c1nc(-c2cnc(N)cc2C(F)F)nc(N2CCOCC2)n1 [Compound 8, (S)-4-(difluoromethyl)-5-(4-(3-methylmorpholino)-6-morpholino-1,3,5-triazin-2-yl)pyridin-2-amine]",IC50,[4],68 nM
same,MTD,[1],25 mg/kg
same,Threshold difference between nonepileptic and epileptic,[2]; [8],−1%
same,"Threshold difference between vehicle and drug threshold, epileptic",[2]; [8],−1%
same,"Threshold difference between vehicle and drug threshold, nonepileptic",[2]; [8],8%
same,Threshold difference between nonepileptic and epileptic,[2]; [9],−14%
same,"Threshold difference between vehicle and drug threshold, epileptic",[2]; [9],−9%
same,Threshold difference between nonepileptic and epileptic,[2]; [10],−22%
same,"Threshold difference between vehicle and drug threshold, epileptic",[2]; [10],6%
same,"Threshold difference between vehicle and drug threshold, nonepileptic",[2]; [10],30%
same,Threshold difference between nonepileptic and epileptic,[2]; [11],5%
same,"Threshold difference between vehicle and drug threshold, epileptic",[2]; [11],−2%
same,decrease of the CC50,"[2]; Cpd. 8, epileptic mice, pretreatment time reduced to 1 h",9%
